US10028992B2, “Methods of treating muscular dystrophy” (BOARD OF REGENTS OF THE NEVADA SYSTEM OF HIGHER EDUCATION …, priority 2012, dated 2018)

Test system: α7 integrin promoter
Test: muscle cell-based assay: α7βgal+/− myoblasts/myotubes, LacZ reporter, β-galactosidase cleavage of FDG
Set-up: species or system mouse; Results in α7+/− β-galactosidase assay: scale not given here
Settings: Myoblasts
Procedure, shortened: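 Fluorescein generated from FDG by β-galactosidase reports α7 integrin promoter activity in differentiated myoblasts from α7+/− LacZ knock-in pups. Screening hits then went to dose-response, western blotting and a myostatin counterscreen.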

Row | SMILES | Results in α7+/− β-galactosidase assay (0.5 uM) | Results in α7+/− β-galactosidase assay (1 uM) | Results in α7+/− β-galactosidase assay (5 uM) | Results in α7+/− β-galactosidase assay (10 uM) | Results in α7+/− β-galactosidase assay (20 uM) | Results in α7+/− β-galactosidase assay (40 uM) | Result in α7+/− β-galactosidase assay (0.5 uM) | Result in α7+/− β-galactosidase assay (1 uM) | Result in α7+/− β-galactosidase assay (5 uM) | Result in α7+/− β-galactosidase assay (10 uM) | Result in α7+/− β-galactosidase assay (20 uM) | Result in α7+/− β-galactosidase assay (40 uM)
1 | O=C1Cc2ccccc2/C1=C\c1ccc([N+](=O)[O-])cc1 [drawing 703] | 0.04429 | −0.00937 | 0.02036 | 0.1452 | −0.2086 | −0.4972 |  |  |  |  |  | 
2 | CCCC(=O)OCC(=O)c1[nH]c(C)c(C(C)=O)c1C [drawing 704] | 0.1272 | 0.03672 | 0.01568 | 0.2296 | −0.2776 | −0.5017 |  |  |  |  |  | 
3 | CCO/C(C)=C1\C(=O)Nc2ccccc21 [drawing 705] | −0.00711 | 0.04915 | 0.06742 | 0.09535 | −0.0389 | −0.1063 |  |  |  |  |  | 
4 | COc1ccc(C(=O)Nc2ccc(Cl)cn2)cc1Cl [drawing 706] |  |  |  |  |  |  | 0.1451 | 0.1676 | −0.1344 | −0.2645 | −0.7598 | −0.8234
5 | CCOc1ccccc1NC(=O)c1cccc2c1C(=O)N(C1CCCCC1)C2 [drawing 707] |  |  |  |  |  |  | 0.2793 | 0.1772 | −0.01616 | 0.02001 | 0.1258 | 0.02179
6 | CCOC(=O)C1CCCN(C(=O)CNS(=O)(=O)c2ccc(Br)s2)C1 (stereo not drawn) [drawing 708] |  |  |  |  |  |  | −0.01823 | 0.07424 | −0.1417 | −0.1278 | −0.1459 | −0.2189
7 | Cc1nnc(SCC(=O)c2ccc(Br)cc2)s1 [drawing 709] |  |  |  |  |  |  | 0.3789 | 0.2434 | 0.08324 | 0.1001 | 0.111 | −0.07647
8 | Cn1ccc(C(=O)Nc2cccnc2Cl)n1 [drawing 710] |  |  |  |  |  |  | 0.1419 | 0.09145 | 0.0569 | 0.1922 | −0.0349 | −0.1785
9 | CCOC(=O)c1sc(=N)n(-c2ccc(OC)cc2)c1C [drawing 711] |  |  |  |  |  |  | 0.2274 | 0.1661 | −0.01196 | 0.01787 | −0.3971 | −0.6044
10 | COc1c(Cl)cc(/C=C2\C(=O)Nc3ccccc32)cc1Cl [drawing 712] |  |  |  |  |  |  | 0.2725 | 0.2417 | 0.01335 | 0.04886 | 0.1098 | −0.01132
11 | COc1c(Cl)cc(/C=C2\C(=O)Nc3ccccc32)cc1Cl [drawing 713] |  |  |  |  |  |  | 0.3543 | 0.1322 | −0.0815 | −0.2165 | −0.302 | −0.4698
12 | CC(=O)Oc1c(Cl)cc(/C=C2\C(=O)Nc3ccccc32)cc1Cl [drawing 714] |  |  |  |  |  |  | 0.1697 | −0.08406 | 0.02082 | 0.02563 | −0.00439 | −0.1892
13 | CCN(CC)CCNC(=O)c1c(C)[nH]c(CC2C(=O)Nc3ccc(F)cc32)c1C (stereo not drawn) [drawing 715] |  |  |  |  |  |  | −0.1627 | 0.03203 | −0.6776 | −0.9863 | −0.9859 | −0.9872
14 | O=C1Nc2ccccc2/C1=C1\Nc2ccccc2C1=O [drawing 716] |  |  |  |  |  |  | 0.06101 | 0.0859 | −0.394 | −0.2837 | −0.157 | −0.1933
15 | Cc1[nH]c(/C=C2\C(=O)Nc3ccccc32)c(C)c1CCC(=O)O [drawing 717] |  |  |  |  |  |  | 0.01086 | 0.05675 | −0.0938 | −0.1338 | −0.04064 | −0.0832
16 | Cc1cc(C)c(/C=C2\C(=O)Nc3ccccc32)[nH]1 [drawing 718] |  |  |  |  |  |  | 0.03555 | 0.05336 | −0.2683 | −0.3603 | −0.2204 | −0.3534
17 | Cc1cc(C)c(/C=C2\C(=O)Nc3ccccc32)[nH]1 [drawing 720] |  |  |  |  |  |  | −0.06315 | −0.0048 | −0.2673 | −0.3421 | −0.3332 | −0.4797
